The record followed here is US9108957B2 (MITSUBISHI TANABE PHARMA CORPORATION, priority 2009, dated 2015).

SMILES strings stand for the structures.

Sequence of human recombinant TPK1 (P49841 whole entry): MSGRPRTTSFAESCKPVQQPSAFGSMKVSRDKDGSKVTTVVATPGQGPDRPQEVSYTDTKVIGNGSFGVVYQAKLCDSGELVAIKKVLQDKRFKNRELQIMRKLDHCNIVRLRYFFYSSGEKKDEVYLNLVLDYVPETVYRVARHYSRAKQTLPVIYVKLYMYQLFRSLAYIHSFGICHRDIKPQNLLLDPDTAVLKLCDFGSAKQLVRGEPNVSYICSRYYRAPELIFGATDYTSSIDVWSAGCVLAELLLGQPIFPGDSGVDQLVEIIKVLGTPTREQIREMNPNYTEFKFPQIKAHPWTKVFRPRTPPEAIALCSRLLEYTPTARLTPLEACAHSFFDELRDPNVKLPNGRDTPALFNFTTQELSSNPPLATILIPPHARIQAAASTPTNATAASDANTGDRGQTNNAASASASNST

The target in this test is human recombinant TPK1 (Homo sapiens, UniProt P49841). The experiment in a line: Inhibitory activity against P-GS1 phosphorylation by TPK1 (Kinase Glo luminescence). The format is biochemical. The following applies: 7.5 μM P-GS1, 10 μM ATP, 25° C. for 16 hours, Kinase Glo Reagent luminescent signal. The method, boiled down:
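Human recombinant TPK1 phosphorylated 7.5 μM P-GS1 with 10 μM ATP in 100 mM HEPES-NaOH pH 7.2 with Mg, EGTA, DTT, Tween 20 and 1% DMSO final, for 16 h at 25° C. Remaining ATP was read by Kinase Glo luminescence. IC50 was normalised to no-enzyme (0%) and no-compound (100%) controls.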
Background: In Kinase-Glo more light means more ATP remaining.
In general, IC50 refers to the concentration needed to halve the response being measured. Consider `Cn1c(N2CCCOC(c3ccccc3)C2)nc(-c2ccncn2)cc1=O` (stereo not shown) [Compound A026, 2-(2-phenyl-1,4-oxazepan-4-yl)-3-methyl-6-(pyrimidin-4-yl)pyrimidin-4(3H)-one], for which the IC50 was 14.6 nM.
Turning to `Cn1c(N2CCOCC(c3ccc(-c4ncon4)cc3)C2)nc(-c2ccncc2F)cc1=O` (stereo not shown) [Compound A078, 2-[6-[4-(1,2,4-oxadiazol-3-yl)-phenyl]-1,4-oxazepan-4-yl]-6-(3-fluoropyridin-4-yl)-3-methylpyrimidin-4(3H)-one], the IC50 was found to be 7.1 nM.
For `Cn1c(N2CCCO[C@@H](c3ccc(C(N)=O)cc3)C2)nc(-c2ccncc2)cc1=O` [Compound A017, (S)-2-[2-(4-aminocarbonylphenyl)-1,4-oxazepan-4-yl]-3-methyl-6-(pyridin-4-yl)pyrimidin-4(3H)-one], the IC50 stood at 11 nM.
As to `COc1ccc(C2CCN(c3nc(-c4ccncc4)cc(=O)n3C)CCO2)cc1` (stereo not shown) [Compound A118, 2-(7-(4-methoxyphenyl)-1,4-oxazepan-4-yl)-3-methyl-6-(pyridin-4-yl)pyrimidin-4(3H)-one], the IC50 came out at 58.6 nM.
As for `Cc1nc(-c2cccc([C@H]3CN(c4nc(-c5ccncc5F)cc(=O)n4C)CCCO3)c2)no1` [Compound A016, (S)-2-[2-[3-(5-methyl-1,2,4-oxadiazol-3-yl)-phenyl]-1,4-oxazepan-4-yl]-6-(3-fluoropyridin-4-yl)-3-methylpyrimidin-4(3H)-one], the IC50 is 10.3 nM.
Turning to `Cn1c(N2CCCO[C@@H](c3ccc(Br)cc3)C2)nc(-c2ccncn2)cc1=O` [Compound A009, (S)-2-[2-(4-bromophenyl)-1,4-oxazepan-4-yl]-3-methyl-6-(pyrimidin-4-yl)pyrimidin-4(3H)-one], the IC50 was found to be 5.2 nM.
For `Cn1c(N2CCCO[C@@H](c3ccc(C(N)=O)cc3)C2)nc(-c2ccncn2)cc1=O` [Compound A018], the IC50 was 11 nM.
Take `Cn1c(N2CCOC(c3ccc(-c4ncon4)cc3)CC2)nc(-c2ccncn2)cc1=O` (single isomer, unassigned; (+)) [Compound A099, (+)-2-[7-[4-(1,2,4-oxadiazol-3-yl)-phenyl]-1,4-oxazepan-4-yl]-3-methyl-6-(pyrimidin-4-yl)pyrimidin-4(3H)-one]: the IC50 was found to be 14.7 nM.
To `Cc1nc(-c2ccc([C@@H]3COCCN(c4nc(-c5ccncn5)cc(=O)n4C)C3)cc2)no1` [Compound A085, (S)-2-[6-[4-(5-methyl-1,2,4-oxadiazol-3-yl)-phenyl]-1,4-oxazepan-4-yl]-3-methyl-6-(pyrimidin-4-yl)pyrimidin-4(3H)-one] belongs 16.7 nM.
Turning to `Cn1c(N2CCCN(c3ccc(F)cc3)CC2)nc(-c2ccncc2F)cc1=O` [Compound A003, 2-[4-(4-fluorophenyl)-1,4-diazepan-1-yl]-6-(3-fluoropyridin-4-yl)-3-methylpyrimidin-4(3H)-one], the IC50 was 18.4 nM.
For the compound `Cc1nc(-c2cccc([C@H]3CN(c4nc(-c5ccncc5)cc(=O)n4C)CCCO3)c2)no1` [Compound A042, (S)-2-[2-[3-(5-methyl-1,2,4-oxadiazol-3-yl)-phenyl]-1,4-oxazepan-4-yl]-3-methyl-6-(pyridin-4-yl)pyrimidin-4(3H)-one], the IC50 is 44.6 nM.
Turning to `Cn1c(N2CCOCCC2c2ccccc2)nc(-c2ccncc2F)cc1=O` (stereo not shown) [Compound A066, 6-(3-fluoropyridin-4-yl)-3-methyl-2-(5-phenyl-1,4-oxazepan-4-yl)pyrimidin-4(3H)-one], the IC50 came to 5.5 nM.
Consider `Cn1c(N2CCOC[C@@H](c3ccc(C#N)cc3)C2)nc(-c2ccncn2)cc1=O` [Compound A076, (S)-2-[6-(4-cyanoophenyl)-1,4-oxazepan-4-yl]-3-methyl-6-(pyrimidin-4-yl)pyrimidin-4(3H)-one], for which the IC50 is 3.1 nM.
For `Cn1c(N2CCCO[C@@H](c3cccc(Br)c3)C2)nc(-c2ccncc2)cc1=O` [Compound A024, (S)-2-[2-(3-bromophenyl)-1,4-oxazepan-4-yl]-3-methyl-6-(pyridin-4-yl)pyrimidin-4(3H)-one], the IC50 worked out at 13 nM.
On to `Cn1c(N2CCCO[C@@H](c3ccc(C#N)cc3)C2)nc(-c2ccncn2)cc1=O` [Compound A028, (S)-2-[2-(4-cyanophenyl)-1,4-oxazepan-4-yl]-3-methyl-6-(pyrimidin-4-yl)pyrimidin-4(3H)-one], for which the IC50 worked out at 17.6 nM.
With `COc1ccc(C2CCN(c3nc(-c4ccncc4F)cc(=O)n3C)CCO2)cc1` (stereo not shown) [Compound A095, 2-[7-(4-methoxyphenyl)-1,4-oxazepan-4-yl]-6-(3-fluoropyridin-4-yl)-3-methylpyrimidin-4(3H)-one], the IC50 is 10.7 nM.
Regarding `Cc1nc(-c2ccc(C3COCCN(c4nc(-c5ccncn5)cc(=O)n4C)C3)cc2)no1` (stereo not shown) [Compound A086, 2-[6-[4-(5-methyl-1,2,4-oxadiazol-3-yl)-phenyl]-1,4-oxazepan-4-yl]-3-methyl-6-(pyrimidin-4-yl)pyrimidin-4(3H)-one], the IC50 is 35.8 nM.
For the compound `COc1cccc(C2CCN(c3nc(-c4ccncc4)cc(=O)n3C)CCO2)c1` (stereo not shown) [Compound A109, 2-[7-(3-methoxyphenyl)-1,4-oxazepan-4-yl]-3-methyl-6-(pyridin-4-yl)pyrimidin-4(3H)-one], the IC50 is 28 nM.
Consider `Cn1c(N2CCCO[C@H](c3ccc(C#N)cc3)C2)nc(-c2ccncc2F)cc1=O` [Compound A063, (R)-2-[2-(4-cyanophenyl)-1,4-oxazepan-4-yl]-6-(3-fluoropyridin-4-yl)-3-methylpyrimidin-4(3H)-one], for which the IC50 came out at 826 nM.
Consider `Cn1c(N2CCCOC(c3ccccc3)C2)nc(-c2ccncc2F)cc1=O` (stereo not shown) [Compound A006, 2-(2-phenyl-1,4-oxazepan-4-yl)-6-(3-fluoropyridin-4-yl)-3-methylpyrimidin-4(3H)-one], for which the IC50 came out at 2.3 nM.
With `CC1CN(c2nc(-c3ccncc3)cc(=O)n2C)CCCO1` (stereo not shown) [Compound A061, 2-(2-methyl-1,4-oxazepan-4-yl)-3-methyl-6-(pyridin-4-yl)pyrimidin-4(3H)-one], the IC50 is 446 nM.
With `Cn1c(N2CCCN(c3ccc(F)cc3)CC2)nc(-c2ccncc2)cc1=O` [Compound A005, 2-[4-(4-fluorophenyl)-1,4-diazepan-1-yl]-3-methyl-6-(pyridin-4-yl)pyrimidin-4(3H)-one], the IC50 amounted to 84.2 nM.
As for `Cn1c(N2CCOC(c3ccc(-c4ncon4)cc3)CC2)nc(-c2ccncc2F)cc1=O` (single isomer, unassigned; (+)) [Compound A089], the IC50 amounted to 5.4 nM.
For the compound `Cn1c(N2CCOC(c3ccc(Br)cc3)CC2)nc(-c2ccncn2)cc1=O` (single isomer, unassigned; (+)) [Compound A096, (+)-2-[7-(4-bromophenyl)-1,4-oxazepan-4-yl]-3-methyl-6-(pyrimidin-4-yl)pyrimidin-4(3H)-one], the 50% inhibitory concentration (IC50) is 10.8 nM.
Take `Cn1c(N2CCOC(c3ccc(-c4ncno4)cc3)CC2)nc(-c2ccncn2)cc1=O` (single isomer, unassigned; (-)) [Compound A116, (−)-2-[7-[4-(1,2,4-oxadiazol-5-yl)-phenyl]-1,4-oxazepan-4-yl]-3-methyl-6-(pyrimidin-4-yl)pyrimidin-4(3H)-one]: the IC50 came to 48 nM.
Turning to `Cn1c(N2CCCO[C@H](c3ccc(F)cc3)C2)nc(-c2ccncc2F)cc1=O` [Compound A054, (R)-2-[2-(4-fluorophenyl)-1,4-oxazepan-4-yl]-6-(3-fluoropyridin-4-yl)-3-methylpyrimidin-4(3H)-one], the IC50 was 111 nM.
Consider `CC1CN(c2nc(-c3ccncn3)cc(=O)n2C)CCCO1` (stereo not shown) [Compound A051, 2-(2-methyl-1,4-oxazepan-4-yl)-3-methyl-6-(pyrimidin-4-yl)pyrimidin-4(3H)-one], for which the IC50 came out at 80.3 nM.
With `Cc1nc(-c2ccc([C@H]3CN(c4nc(-c5ccncc5)cc(=O)n4C)CCCO3)cc2)no1` [Compound A050, (S)-2-[2-[4-(5-methyl-[1,2,4]oxadiazol-3-yl)-phenyl]-1,4-oxazepan-4-yl]-3-methyl-6-(pyridin-4-yl)pyrimidin-4(3H)-one] the figure was 77.4 nM; with `Cc1nc(-c2ccc(C3CCN(c4nc(-c5ccncn5)cc(=O)n4C)CCO3)cc2)no1` (single isomer, unassigned; (-)) [Compound A112, (−)-2-[7-[4-(5-methyl-1,2,4-oxadiazol-3-yl)-phenyl]-1,4-oxazepan-4-yl]-3-methyl-6-(pyrimidin-4-yl)pyrimidin-4(3H)-one], 30 nM.
For `Cc1nc(-c2ccc(C3CN(c4nc(-c5ccncn5)cc(=O)n4C)CCCO3)cc2)no1` (stereo in doubt) [Compound A034, (R)-2-[2-[4-(5-methyl-1,2,4-oxadiazol-3-yl)-phenyl]-1,4-oxazepan-4-yl]-3-methyl-6-(pyrimidin-4-yl)pyrimidin-4(3H)-one], the IC50 is 23.5 nM.
With `CC1COCCN(c2nc(-c3ccncn3)cc(=O)n2C)C1` (stereo not shown) [Compound A087, 2-(6-methyl-1,4-oxazepan-4-yl)-3-methyl-6-(pyrimidin-4-yl)pyrimidin-4(3H)-one] the figure was 80.1 nM; with `Cc1noc(-c2ccc(C3CCN(c4nc(-c5ccncc5F)cc(=O)n4C)CCO3)cc2)n1` (single isomer, unassigned; (+)) [Compound A090, (+)-2-[7-[4-(3-methyl-1,2,4-oxadiazol-5-yl)-phenyl]-1,4-oxazepan-4-yl]-6-(3-fluoropyridin-4-yl)-3-methylpyrimidin-4(3H)-one], 6.1 nM.
Consider `CC1CCOCCN1c1nc(-c2ccncc2F)cc(=O)n1C` (stereo not shown) [Compound A067, 6-(3-fluoropyridin-4-yl)-3-methyl-2-(5-methyl-1,4-oxazepan-4-yl)pyrimidin-4(3H)-one], for which the IC50 turned out to be 9.7 nM.
To `Cn1c(N2CCOC(c3ccc(Br)cc3)CC2)nc(-c2ccncc2F)cc1=O` (single isomer, unassigned; (-)) [Compound A120, (−)-2-(7-(4-bromophenyl)-1,4-oxazepan-4-yl)-6-(3-fluoropyridin-4-yl)-3-methylpyrimidin-4(3H)-one] belongs 82.8 nM.
